Test results published in US11591341B2 (ALIGOS THERAPEUTICS, INC., priority 2019, dated 2023).

Tested on: HBV
Assay: HBV-DNA Antiviral Assay Using HepG2.2.15 Cells (extracellular HBV DNA by qPCR)
Format: cell-based
Settings: Hepatitis B virus, 168 h; HBV DNA inhibition, HepG2.2.15 cells, extracellular HBV DNA by qPCR on day 7; read-out: EC50
Description: The following assay procedure describes the HBV antiviral assay. This assay uses HepG2.2.15 cells, which have been transfected with HBV genome, and extracellular HBV DNA quantification as endpoint. Cell viability is assessed in parallel by measuring the intracellular ATP content using the CellTiter-Glo© reagent from Promega.
On day 0, HepG2.2.15 cells were seeded in 96-well plates at a density of 6.0×10^4 cells/well (0.1 mL/well). The cells were incubated at 37° C. and 5% CO2.
On day 1, the test articles were diluted and added to cell culture wells (8 concentrations, 4-fold dilution, in duplicate). GLS4, Tenofovir and Sorafenib were used as reference compounds. 100 μL of culture medium containing the compounds was added to the plate, and the final total volume per well was 200 μL. The final concentration of DMSO in the culture medium was 0.5%. The plate map of compound treatment is shown below. The cells were cultured at 37° C. and 5% CO2 for 3 days.
On day 4, the plates were refreshed with culture media with compounds.
On day 7, cell viability was assessed using the CellTiter-Glo, and the cell culture supernatants were collected for determination of HBV DNA by qPCR.
Extracellular DNA was isolated with QIAamp 96 DNA Blood Kit per the manufacturer's manual. HBV DNA was then quantified by qPCR with HBV specific primers and probes as specified in Table 1 using the FastStart Universal MasterMix from Roche on an ABI-7900HT. The PCR cycle program consisted of 95° C. for 10 min, followed by 40 cycles at 95° C. for 15 sec and 60° C. for 1 min.
A DNA standard was prepared by dilution of the pAAV2 HBV1.3 plasmid with concentrations ranging from 10 to 1×10^7 copies/μL and used to generate a standard curve by plotting Ct value vs. the concentration of the HBV plasmid DNA standard. The quantity of HBV DNA in each sample was determined by interpolating from the standard curve.
Cell viability was calculated as follows: % Cell viability=(luminescence value of test sample−average luminescence value of blank)/(average luminescence value of 0.5% DMSO control−average luminescence of blank)×100%. HBV DNA inhibition was calculated as follows: 100-(HBV DNA copy number of test sample−HBV DNA copy number of ETV)/HBV DNA copy number of 0.5% DMSO control−HBV DNA copy number of ETV)×100%. The CC50, EC50 and EC90 values were determined by dose-response curves fitted by GraphPad Prism using “log (agonist) vs. response—Variable slope”.

Q: How did the EC50 turn out when O=C1NCCCn2c1c1n(c2=O)CCN(C(=O)c2ccc(Br)c(F)c2)C1 [Example 6, 2-(4-bromo-3-fluorobenzoyl)-1,2,3,4,8,9,10,11-octahydro-6H,12H-pyrazino[1′,2′:3,4]imidazo[1,5-a][1,4]diazepine-6,12-dione] was run?
A: The EC50 was > 5 µM.

Q: How did the EC50 turn out when O=C1NCCCn2c1c1n(c2=O)CCN(C(=O)c2ccc(Br)c(Cl)c2)C1 [Example 7, 2-(4-bromo-3-chlorobenzoyl)-1,2,3,4,8,9,10,11-octahydro-6H,12H-pyrazino[1′,2′:3,4]imidazo[1,5-a][1,4]diazepine-6,12-dione] was run?
A: Its EC50 is > 5 µM.

Q: For CN1CCCn2c(c3n(c2=O)CCN(C(=O)c2ccc(Br)c(Cl)c2)C3)C1=O [Example 8, 2-(4-bromo-3-chlorobenzoyl)-11-methyl-1,2,3,4,8,9,10,11-octahydro-6H,12H-pyrazino[1′,2′:3,4]imidazo[1,5-a][1,4]diazepine-6,12-dione], which EC50 is on record?
A: Its EC50 is > 5 µM.

Q: Which EC50 does the source give for COc1ccc(CN2CCCn3c(c4n(c3=O)CCN(C(=O)c3ccc(Br)c(Cl)c3)C4)C2=O)cc1 [Example 9, 2-(4-bromo-3-chlorobenzoyl)-11-(4-methoxybenzyl)-1,2,3,4,8,9,10,11-octahydro-6H,12H-pyrazino[1′,2′:3,4]imidazo[1,5-a][1,4]diazepine-6,12-dione] here?
A: The EC50 was 0.1 to 0.5 µM.

Q: Which EC50 does the source give for CC(C)NC(=O)c1c2n(c(=O)n1-c1ccccc1)CCN(C(=O)Nc1ccc(F)c(Cl)c1)C2 [Example 10, N^7-(3-chloro-4-fluorophenyl)-3-oxo-2-phenyl-N1-(propan-2-yl)-2H,3H,5H,6H,7H,8H-imidazo[1,5-a]pyrazine-1,7-dicarboxamide] here?
A: Its EC50 is 0.5 to 5 µM.

Q: With COc1ccc(CNC(=O)c2c3n(c(=O)n2-c2ccccc2)CCN(C(=O)Nc2ccc(F)c(Cl)c2)C3)cc1 [Example 11, N^7-(3-chloro-4-fluorophenyl)-N1-[(4-methoxyphenyl)methyl]-3-oxo-2-phenyl-2H,3H,5H,6H,7H,8H-imidazo[1,5-a]pyrazine-1,7-dicarboxamide] as the molecule, how does the EC50 read?
A: The EC50 was 0.1 to 0.5 µM.

Q: With CC(C)NC(=O)c1c2n(c(=O)n1-c1ccccc1)CCN(C(=O)c1ccc(Br)c(Cl)c1)C2 [Example 12, 7-(4-bromo-3-chlorobenzoyl)-3-oxo-2-phenyl-N-(propan-2-yl)-2H,3H,5H,6H,7H,8H-imidazo[1,5-a]pyrazine-1-carboxamide] as the molecule, how does the EC50 read?
A: The EC50 was > 5 µM.

Q: How did the EC50 turn out when COc1ccc(CNC(=O)c2c3n(c(=O)n2-c2ccccc2)CCN(C(=O)c2ccc(Br)c(Cl)c2)C3)cc1 [Example 13, 7-(4-bromo-3-chlorobenzoyl)-N-[(4-methoxyphenyl)methyl]-3-oxo-2-phenyl-2H,3H,5H,6H,7H,8H-imidazo[1,5-a]pyrazine-1-carboxamide] was run?
A: The EC50 was 0.5 to 5 µM.

Q: With COc1ccc(CNC(=O)c2c3n(c(=O)n2Cc2ccccc2)CCN(C(=O)c2ccc(Br)c(Cl)c2)C3)cc1 [Example 14, 2-benzyl-7-(4-bromo-3-chlorobenzoyl)-N-[(4-methoxyphenyl)methyl]-3-oxo-2H,3H,5H,6H,7H,8H-imidazo[1,5-a]pyrazine-1-carboxamide] as the molecule, how does the EC50 read?
A: The EC50 was > 5 µM.

Q: Which EC50 does the source give for O=C(Nc1ccc(F)c(Cl)c1)N1CCn2c(c3n(c2=O)CCN(Cc2ccccc2)C3=O)C1 [Example 16, 12-benzyl-N-(3-chloro-4-fluoro-phenyl)-8,13-dioxo-4,7,9,12-tetrazatricyclo[7.4.0.0^2,7]tridec-1-ene-4-carboxamide] here?
A: The EC50 was 0.5 to 5 µM.

Q: With COc1ccc(CN2CCn3c(c4n(c3=O)CCN(C(=O)Nc3ccc(F)c(Cl)c3)C4)C2=O)cc1 [Example 17, N-(3-chloro-4-fluoro-phenyl)-12-[(4-methoxyphenyl)methyl]-8,13-dioxo-4,7,9,12-tetrazatricyclo[7.4.0.0^2,7]tridec-1-ene-4-carboxamide] as the molecule, how does the EC50 read?
A: Its EC50 is > 5 µM.

Q: With COc1ccc(CN2CCn3c(c4n(c3=O)CCN(C(=O)c3ccc(Br)c(F)c3)C4)C2=O)cc1 [Example 18, 12-(4-bromo-3-fluoro-benzoyl)-4-[(4-methoxyphenyl)methyl]-4,7,9,12-tetrazatricyclo[7.4.0.0^2,7]tridec-1-ene-3,8-dione] as the molecule, how does the EC50 read?
A: The EC50 was > 5 µM.

Q: With COc1ccc(CN2CCn3c(c4n(c3=O)CCN(C(=O)c3ccc(Br)c(Cl)c3)C4)C2=O)cc1 [Example 19, 12-(4-bromo-3-chloro-benzoyl)-4-[(4-methoxyphenyl)methyl]-4,7,9,12-tetrazatricyclo[7.4.0.0^2,7]tridec-1-ene-3,8-dione] as the molecule, how does the EC50 read?
A: Its EC50 is > 5 µM.

Q: For COc1ccc(CN2CCn3c(c4n(c3=O)CCN(C(=O)c3ccc(Br)cc3)C4)C2=O)cc1 [Example 20, 12-(4-bromobenzoyl)-4-[(4-methoxyphenyl)methyl]-4,7,9,12-tetrazatricyclo[7.4.0.0^2,7]tridec-1-ene-3,8-dione], which EC50 is on record?
A: Its EC50 is > 5 µM.

Q: For O=C(NCc1ccccc1-c1nccnn1)c1c2n(c(=O)n1-c1ccc(OC3CC3)cc1)CCN(C(=O)c1ccc(Br)c(Cl)c1)C2 [Example 463, 7-(4-bromo-3-chloro-benzoyl)-2-[4-(cyclopropoxy)phenyl]-3-oxo-N-[[2-(1,2,4-triazin-3-yl)phenyl]methyl]-6,8-dihydro-5H-imidazo[1,5-a]pyrazine-1-carboxamide], which EC50 is on record?
A: Its EC50 is 0.1 to 0.5 µM.

Q: Cc1cccnc1-c1ccccc1CNC(=O)c1c2n(c(=O)n1-c1ccc(OC3CC3)cc1)CCN(C(=O)c1ccc(Br)c(Cl)c1)C2 [Example 464, 7-(4-bromo-3-chloro-benzoyl)-2-[4-(cyclopropoxy)phenyl]-N-[[2-(3-methyl-2-pyridyl)phenyl]methyl]-3-oxo-6,8-dihydro-5H-imidazo[1,5-a]pyrazine-1-carboxamide] was tested. Which EC50 did it give?
A: Its EC50 is 0.5 to 5 µM.

Q: How did the EC50 turn out when O=C(NCc1ccccc1-c1ncccc1F)c1c2n(c(=O)n1-c1ccc(OC3CC3)cc1)CCN(C(=O)c1ccc(Br)c(Cl)c1)C2 [Example 465, 7-(4-bromo-3-chloro-benzoyl)-2-[4-(cyclopropoxy)phenyl]-N-[[2-(3-fluoro-2-pyridyl)phenyl)methyl]-3-oxo-6,8-dihydro-5H-imidazo[1,5-a]pyrazine-1-carboxamide] was run?
A: Its EC50 is 0.1 to 0.5 µM.
